In US20260000496A1, “MATERIALS AND METHODS FOR DRUG-INDUCED GINGIVAL OVERGROWTH” (Optimed Technology, Inc., priority 2019, published 2026):

Key:
LITAF = experiment: Western blot of LITAF in oral keratinocytes; format: cell-based, human
Method: Cell Culture. Normal human oral keratinocytes (NOKSI) and fibroblast (HOF) cells were maintained in Dulbecco […] Eagle's medium (Sigma-Aldrich, St. Louis, MO, USA) supplemented with 10% fetal bovine serum (Atlas Bio-logicals, Fort Collins, CO, USA) and 100 units/mL penicillin and 100 μg/mL streptomycin (LifeTechnologies, Carlsbad, CA, USA). Cells were grown in incubator at 37° C. in a humidified chamber with 5% CO2.
Drugs treatment in cell culture. The cells were treated alone or with different combination of lipopolysaccharide, cyclosporine, phenytoin, and folic acid. All of them were purchased from Sigma-Aldrich (St. Louis, MO, USA). Each of them were used from 0 μg/ml to 40 μg/ml and the optimum concentration were found 10 μg/ml.
(§1) Western blot analysis. Cells were seeded in 60 mm plates with a density of 5×10^5 cells per plate and washed briefly with Dulbecco's phosphate-buffered saline (Gibco, Waltham, MA, USA). Whole cell lysates were prepared using RIPA lysis buffer containing protease inhibitor cocktail (Sigma-Aldrich). Total protein concentration was determined using the BCA reagent (Pierce, Waltham, MA, USA). 20 μg of total protein were resolved on sodium dodecyl sulfate-polyacrylamide gel electrophoresis and transferred to polyvinylidenedifluoride membrane and immunoblotted. The blots were incubated for 1 h in 1% bovine serum albumin (BSA) (Sigma-Aldrich) to block the non-specific bindings followed by over-night incubation in primary antibodies (MyD88 and pP65 from Cell Signaling Technology, and human LITAF ThermoFisher Sigma) at 4° C. on shaker. Next day, blots were washed for three times (10 min each) in Tris-buffered saline containing 1% Tween20 (TBST) followed by incubation with secondary antibody (Goat anti-rabbit IgG HRP) with 1:10,000 dilution for 1 h. Following washes, bands were visualized using gel documentation Imaging Systems (BioRad). The band intensities were quantified using software ImageJ (NIH, USA) and relative protein levels were normalized by β-actin (Cell Signaling). To perform the western blot of animal tissue samples, the gingival tissues were collected from both BABLB/c and C57BL/6 mice studies. The soft tissues were separated from the mandibular bone and then crunched. The Bradford assay was performed to measure the protein concentration of each sample. After normalization, 20 μg of whole tissue protein lysate were proceeded for western blot analysis.

phospho-p65 = experiment: Mice study #2: phospho-p65 immunoblotting of gingival samples; format: in vivo, C57BL/6 mice; conditions: pattern as for Myd88 (disease higher than control and treatment)
Method: as §1, with “Following washes, bands were visualized using gel documentation Imaging Systems (BioRad).” left out, “[…] The band intensities were measured by” for “To perform”, “software ImageJ (NIH, USA), and relative protein levels” for “western blot of animal tissue samples, the gingival tissues”, “normalized by β-actin.” for “collected from both BABLB/c and C57BL/6 mice studies. The soft tissues were separated from the mandibular bone and then crunched. The Bradford assay was performed to measure the protein concentration of each sample. After normalization, 20 μg of whole tissue protein lysate were proceeded for western blot analysis.”

With `Nc1nc2ncc(CNc3ccc(C(=O)N[C@@H](CCC(=O)O)C(=O)O)cc3)nc2c(=O)[nH]1` [folic acid] the LITAF protein level (LITAF; LPS, CSA, FA each 10 μg/ml, 24 hours) was “inhibits CSA-induced expression”, the “amount of LITAF protein” value (LITAF; LPS, Phe, FA each 10 μg/ml, 24 hours) was “LITAF expression is reduced” and the “amount of LITAF protein” value (LITAF; different concentrations of folic acid (2.5-40 μg/ml), 24 hours) was “dose dependent effect”. The “LITAF by western blot” value (LITAF; normal oral keratinocyte cells, FIG. 35) was “downregulation” and the “phospho p65 expression, pattern across groups” value (phospho-p65) was “a similar pattern”.
